In patent US6642224B1, “Diazepan derivatives or salts thereof” (Yamanouchi Pharmaceutical Co., Ltd., priority 2000, dated 2003):

Assays:
human factor Xa = molecular target: T1, human factor Xa (Homo sapiens, UniProt P00742); assay: Test on measurement of coagulation time by human activated blood coagulation factor X; type: biochemical; conditions: human blood plasma; concentration by which the coagulation time is prolonged 2-fold
T1 construct: purchased Enzyme Research Labs
Description: 1) Test on Measurement of Coagulation Time by Human Activated Blood Coagulation Factor X
To 90 μl of human blood plasma were added 10 μl of a drug or a physiological saline and 50 μl of human factor Xa (Enzyme Research Labs), incubation was carried out at 37° C. for 3 minutes, 100 μl of 20 mM CaCl2 previously warmed at 37° C. were added and the time until coagulation was measured by a coagulo-meter (KC10 of Amelung). With regard to the human blood plasma, each 45 ml of blood were collected from vein of elbow of six healthy persons using a syringe in which 5 ml of 3.8% sodium citrate were contained and centrifuged at 4° C. for 15 minutes at 3,000 rpm and the separated blood plasma was pooled and frozen, then thawed before use. With regard to the human factor Xa, the concentration by which the coagulation time when a physiological saline (control) was added was about 30 to 40 seconds was selected. A CT2 value (concentration by which the coagulation time is prolonged to an extent of 2-fold) was determined by plotting the drug concentrations and relative value (fold) of the coagulation time to the control, followed by subjecting to linear regression.

[1] = Test on ex vivo measurement of coagulation time in mice (oral administration); conditions: male ICR mouse, po 100 mg/kg, as compared with control (plasma without administration of a drug)
Description: 4) Test on ex vivo Measurement of Coagulation Time in Mice (Oral Administration)
Using the resulting blood plasma, extrinsic coagulation time (PT) and intrinsic coagulation time (APTT) were measured in accordance with the following methods a) and b).
(§1) a) Extrinsic Coagulation Time (PT)
(§2) Ortho Brain Thromboplastin (54 mg/vial; a freeze-dried preparation; Ortho-Clinical Diagnostics) was dissolved in 2.5 ml of Milli-Q water and preliminarily warmed at 37° C. The above-separated blood plasma (50 μl) was warmed at 37° C. for 1 minute, 50 μl of the above-mentioned thromboplastin solution was added and the coagulation time was measured. Amelung KC10A was used for the measurement of the coagulation time.
(§3) b) Intrinsic Coagulation Time (APTT)
(§4) To 50 μl of the above blood plasma was added 50 μl of Hemoliance Thrombosil I (DIA-IATRON), the mixture was warmed at 37° C. for 3 minutes, 50 μl of a 20 mM CaCl2 solution previously warmed at 37° C. were added and the coagulation time was measured. KC10A manufactured by Amelung was used for the measurement of the coagulation time.
Dose dependency of and time-course changes in the anticoagulation action were also examined by changing the administration dose or the blood collection time.

[2] = Test on ex vivo measurement of coagulation time in cynomolgus monkeys (oral administration); conditions: male cynomolgus monkeys, po 10 mg/kg, as compared with control (plasma without administration of a drug)
Description: as §1, §2, §3, §4
5) Test on ex vivo Measurement of Coagulation Time in Cynomolgus Monkeys (Oral Administration) […]

bovine thrombin = molecular target: T2, bovine thrombin (Bos taurus, UniProt P00735); assay: Test on measurement of coagulation time by bovine thrombin; type: biochemical; conditions: human blood plasma; concentration by which the coagulation time is prolonged 2-fold
T2 construct: 500 units of Thrombin (derived from bovine; Mochida Pharmaceutical); purchased Mochida Pharmaceutical
Description: 2) Test on Measurement of Coagulation Time by Bovine Thrombin
To 50 μl of human blood plasma was added 50 μl of a drug or a physiological saline, incubation was carried out at 37° C. for 3 minutes, 50 μl of thrombin (500 units of Thrombin (derived from bovine; Mochida Pharmaceutical) previously warmed at 37° C. was added and the time until coagulation was measured by a coagulo-meter (KC10 of Amelung). With regard to the human blood plasma, each 45 ml of blood was collected from vein of elbow of six healthy persons using a syringe in which 5 ml of 3.8% sodium citrate was contained and centrifuged at 4° C. for 15 minutes at 3,000 rpm and the separated blood plasma was pooled and frozen, then thawed before use. With regard to the thrombin, the concentration by which the coagulation time when a physiological saline (control) was added was about 20 seconds was selected. A CT2 value (concentration by which the coagulation time is prolonged to an extent of 2-fold) was determined by plotting the drug concentrations and relative value (fold) of the coagulation time to the control, followed by subjecting to linear regression.

T1 sequence (P00742 235-488 limits assumed): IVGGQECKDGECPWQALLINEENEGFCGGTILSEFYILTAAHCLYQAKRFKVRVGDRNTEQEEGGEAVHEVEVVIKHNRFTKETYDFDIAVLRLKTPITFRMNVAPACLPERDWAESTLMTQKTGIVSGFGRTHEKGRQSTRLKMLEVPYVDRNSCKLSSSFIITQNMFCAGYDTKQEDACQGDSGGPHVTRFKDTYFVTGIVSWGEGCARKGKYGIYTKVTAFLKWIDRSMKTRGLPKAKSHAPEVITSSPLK
T1 sequence (P00742 41-179 partner limits assumed): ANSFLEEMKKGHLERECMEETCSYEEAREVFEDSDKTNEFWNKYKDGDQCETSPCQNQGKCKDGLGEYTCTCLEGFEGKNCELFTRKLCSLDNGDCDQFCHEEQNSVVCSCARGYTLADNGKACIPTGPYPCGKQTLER

| Test on measurement of coagulation time by human activated blood coagulation factor X (CT2) (human factor Xa) | Test on measurement of coagulation time by bovine thrombin (CT2) (bovine thrombin) | SMILES | prolongation of extrinsic coagulation time (PT) [1] | prolongation of intrinsic coagulation time (APTT) [1] | prolongation of extrinsic coagulation time (PT) [2] | prolongation of intrinsic coagulation time (APTT) [2] |
| --- | --- | --- | --- | --- | --- | --- |
| 17.0 µM | >100 µM | COc1ccc(C(=O)Nc2ccccc2NC(=O)c2ccc(C3CCNCC3)cc2)cc1 [Control 1, reference compound] |  |  |  |  |
| 1.53 µM | >100 µM | COc1ccc(C(=O)Nc2cccc(OCCO)c2NC(=O)c2ccc(N3CCCN(C)CC3)cc2)cc1.Cl [Example 39, 3-(2-hydroxyethoxy)-N^1-(4-methoxybenzoyl)-N^2-[4-(4-methyl-1,4-diazepan-1-yl)benzoyl]-1,2-phenylenediamine hydrochloride] |  |  |  |  |
| 0.10 µM | >100 µM | CN1CCCN(c2ccc(C(=O)Nc3cc(C(=O)O)ccc3CCc3cccc(C(=N)N)c3)cc2)CC1.Cl [Example 5] |  |  |  |  |

More lines, now with the values behind:

| SMILES | Test on measurement of coagulation time by human activated blood coagulation factor X (CT2) (human factor Xa) | Test on measurement of coagulation time by bovine thrombin (CT2) (bovine thrombin) | prolongation of extrinsic coagulation time (PT) [1] | prolongation of intrinsic coagulation time (APTT) [1] | prolongation of extrinsic coagulation time (PT) [2] | prolongation of intrinsic coagulation time (APTT) [2] |
| --- | --- | --- | --- | --- | --- | --- |
| COc1ccc(C(=O)Nc2ccc(O)cc2NC(=O)c2ccc(N(C)C)cc2)cc1 [Control 2, reference compound] | 11.3 µM |  |  |  |  |  |
| CN1CCCN(c2ccc(C(=O)Nc3cc(C(=O)O)ccc3COc3cccc(C(=N)N)c3)cc2)CC1.Cl [Example 3] |  |  | twice or more | twice or more | twice or more | twice or more |
| COc1ccc(C(=O)Nc2cccc(O)c2NC(=O)c2ccc(N3CCCN(c4ccncc4)CC3)cc2)cc1.Cl [Example 32] | 1.41 µM | >100 µM |  |  |  |  |
| COc1ccc(NC(=O)c2cccc(O)c2NC(=O)c2ccc(N3CCCN(C)CC3)cc2)cc1.Cl [Example 9, 3-hydroxy-4′-methoxy-2-{[4-(4-methyl-1,4-diazapan-1-yl)benzoyl]amino}benzanilide hydrochloride] | 1.71 µM | >100 µM |  |  |  |  |
| CN1CCCN(c2ccc(C(=O)Nc3c(O)cccc3C(=O)Nc3ccc(F)cc3)cc2)CC1.Cl [Example 11] | 1.33 µM | >100 µM |  |  |  |  |
